Measurements reported in patent US5874445A, “(+) -α- (2,3-dimethoxyphenyl)-1-(2-(4-fluorephenyl) ethyl)-4-piepridinemethanol” (Merrell Pharmaceutical, Inc., priority 1997, dated 1999).
Like-named read-outs stand apart in the source and are kept apart here.

Tests used:
[1] = molecular target: T1, 5HT2 receptor (Mus musculus, UniProt P35363); assay: (5-MeO-DMT) head twitch test; type: in vivo, mice; details: ip, read-out: ED50 FOR ABOLITION OF HEAD TWITCH
T1 construct: The administration of 5-methoxy-N,N-dimethyltryptamine 5-MeO-DMT to mice typically produces a characteristic head twitch in the mice; from tissue; host or cells: living mice (in vivo, endogenous receptor)
T1 sequence (P35363 whole entry): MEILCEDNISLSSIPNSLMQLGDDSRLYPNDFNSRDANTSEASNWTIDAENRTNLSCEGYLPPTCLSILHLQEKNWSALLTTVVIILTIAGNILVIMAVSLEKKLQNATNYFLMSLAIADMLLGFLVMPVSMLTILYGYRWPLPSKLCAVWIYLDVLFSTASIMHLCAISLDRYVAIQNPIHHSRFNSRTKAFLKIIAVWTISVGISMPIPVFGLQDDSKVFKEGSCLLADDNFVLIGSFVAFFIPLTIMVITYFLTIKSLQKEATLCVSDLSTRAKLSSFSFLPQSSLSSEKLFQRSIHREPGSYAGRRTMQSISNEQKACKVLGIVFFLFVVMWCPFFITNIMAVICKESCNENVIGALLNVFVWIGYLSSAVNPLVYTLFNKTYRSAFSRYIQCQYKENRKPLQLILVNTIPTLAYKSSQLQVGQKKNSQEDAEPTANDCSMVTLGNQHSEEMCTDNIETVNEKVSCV
Procedure: Psychopharmacol., Vol. 3, pages 89-92, (1979). The administration of 5-methoxy-N,N-dimethyltryptamine 5-MeO-DMT to mice typically produces a characteristic head twitch in the mice. In this test, the mice are administered 5-MeO-DMT and a test compound. An absence of head twitches in the mice is considered to be predictive of the ability of the test compound to antagonize the 5HT2 receptor in vivo.

[2] = system: preference for both alcohol and cocaine; details: rodent model of drug abuse; Meert et al; cited from earlier work
[3] = system: thrombus formation; details: canine models; Bush et al., Drug Development Research, Vol. 7, 319-340 (1986); cited from earlier work
[4] = system: coronary vessel; details: patients with stable angina; Golino et al, NEJM 1991; 324:641-648; cited from earlier work
[5] = system: coronary vessels; details: patients with stable angina, intracoronary infusion, McFadden et al, cited from earlier work
[6] = mice, 5-MeO-DMT induced head twitch

COc1cccc(C(O)C2CCN(CCc3ccccc3)CC2)c1OC (racemic) [Compound C racemic, α-(2,3-dimethoxyphenyl)-1-(2-phenylethyl)-4-piperidinemethanol] showed an ED50 [1] of 2.04 mg/kg.
For Cc1nc2sccn2c(=O)c1CCN1CCC(=C(c2ccc(F)cc2)c2ccc(F)cc2)CC1 [ritanserin], the “preference for both alcohol and cocaine” value [2] is given as “abolished the preference for both alcohol and cocaine”.
In the case of O=C(c1ccc(F)cc1)C1CCN(CCn2c(=O)[nH]c3ccccc3c2=O)CC1 [Ketanserin], the preventing thrombus formation [3] is listed as “extremely effective in preventing thrombus formation” and the coronary vessel constriction [4] is listed as “blocked coronary vessel constriction in patients with stable angina”.
Work on OC(c1ccccc1)C1CCN(CCc2ccccc2)CC1 (single isomer, unassigned) [Compound B (+)-isomer, α-phenyl-1-(2-phenylethyl)-4-piperidinemethanol] yielded an ED50 [1, 6] of 0.87 mg/kg.
Work on COc1cccc(C(O)C2CCN(CCc3ccc(F)cc3)CC2)c1OC (single isomer, unassigned) [Invention, (+)-α-(2,3-dimethoxyphenyl)-1-[2-(4-fluorophenyl)ethyl]-4-piperidinemethanol] yielded an ED50 [1] of 0.03 mg/kg.
OC(c1ccccc1)C1CCN(CCc2ccccc2)CC1 (racemic) [Compound B racemic, α-phenyl-1-(2-phenylethyl)-4-piperidinemethanol] gave an ED50 [1, 6] of 3.28 mg/kg.
For NCCc1c[nH]c2ccc(O)cc12 [serotonin], the “anginal attacks during infusions” value [5] is given as “experienced anginal attacks during these infusions” and the “constriction of the coronary vessels” value ([5]; all concentrations tested, NEJM 1991, 324:648-654) is given as “induced constriction of the coronary vessels in these patients at all concentrations tested”.
